Measurements as given in patent US20250059172A1, “INDAZOLE COMPOUND AND PHARMACEUTICAL” (NIPPON SHINYAKU CO., LTD., priority 2021, published 2025).
pIC50: −log10 of the molar value. Where a name gives a salt, the structure may show the parent alone.

How the values were obtained:
human mPGES-1 = human mPGES-1 (Homo sapiens (Human), UniProt O14684); test: mPGES-1 inhibitory activity test; format: biochemical; settings: microsomes of CHO-K1 cells expressing human mPGES-1, PGH2 1 μM, PGE2 by HTRF; read-out: mPGES-1 inhibition (IC50 nM)
Chain of human mPGES-1 (O14684 whole entry): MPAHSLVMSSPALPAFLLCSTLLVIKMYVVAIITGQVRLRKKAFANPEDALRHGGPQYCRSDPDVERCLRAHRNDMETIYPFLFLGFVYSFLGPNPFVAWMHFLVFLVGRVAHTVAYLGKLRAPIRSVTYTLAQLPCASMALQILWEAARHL
How it was run: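 PGE2 formation was quantified by HTRF and reported as percent inhibition at 10 and 100 nM compound or as IC50. The 60-second reaction at 4° C used 1 μM PGH2, after a 20-minute 4° C preincubation of compound (1% DMSO final) with glutathione-supplemented (2.5 mM, pH 7.4) microsomes. The microsomes were from transiently transfected CHO-K1 cells expressing human mPGES-1.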

human A549 cells = test: Inhibition test of PGE2 production using human A549 cells; format: cell-based; settings: IL-1β stimulated A549 cells, 24 h, PGE2 by HTRF, read-out: A549 cell inhibition of PGE2 production IC50
How it was run: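 A549 cells were preincubated 60 min with compound in RPMI/3% FBS (0.1% DMSO final), then stimulated with IL-1β (5 ng/well) for 24 h at 37°C. PGE2 was measured by HTRF and PGF2a by EIA; activity was normalized to stimulated minus unstimulated controls, and IC50 derived.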

Compound | IC50 (human mPGES-1) | pIC50 (human A549 cells)
CCOc1ccc(-n2ncc3c(NC(=O)c4cc(CNC(=O)C(C)(C)C)ccc4Cl)cccc32)cc1 [Example 65, 2-Chloro-5-{[(2,2-dimethylpropanoyl)amino]methyl}-N-[1-(4-ethoxyphenyl)-1H-indazol-4-yl]benzamide] | 2.2 nM | 8.44
CCOc1cccc(-n2ncc3c(NC(=O)c4cc(CNC(=O)C(C)(C)C)ccc4Cl)cccc32)c1 [Example 66, 2-Chloro-5-{[(2,2-dimethylpropanoyl)amino]methyl}-N-[1-(3-ethoxyphenyl)-1H-indazol-4-yl]benzamide] | 0.2 nM | 8.40
COc1ccc(-n2ncc3c(NC(=O)c4cc(CNC(=O)C(C)(C)C)ccc4Cl)cccc32)cc1OC [Example 67, 2-Chloro-N-[1-(3,4-dimethoxyphenyl)-1H-indazol-4-yl]-5-{[(2,2-dimethylpropanoyl)amino]methyl}benzamide] | 3.7 nM | 8.29
CC(C)Oc1cccc(-n2ncc3c(NC(=O)c4cc(CNC(=O)C(C)(C)C)ccc4Cl)cccc32)c1 [Example 68, 2-Chloro-5-{[(2,2-dimethylpropanoyl)amino]methyl}-N-{1-[3-(propan-2-yloxy)phenyl]-1H-indazol-4-yl}benzamide] | 6.7 nM | 8.70
CC(C)(C)C(=O)NCc1ccc(Cl)c(C(=O)Nc2cccc3c2cnn3-c2cccc(OC(F)(F)F)c2)c1 [Example 71, 2-Chloro-5-{[(2,2-dimethylpropanoyl)amino]methyl}-N-{1-[3-(trifluoromethoxy)phenyl]-1H-indazol-4-yl}benzamide] | 0.1 nM | 9.22
CC(C)(C)C(=O)NCc1ccc(Cl)c(C(=O)Nc2cccc3c2cnn3-c2ccc(C#N)nc2)c1 [Example 72, 2-Chloro-N-[1-(6-cyanopyridin-3-yl)-1H-indazol-4-yl]-5-([(2,2-dimethylpropanoyl)amino]methyl)benzamide] | 6.2 nM | 7.94
COc1cc(-n2ncc3c(NC(=O)c4cc(CNC(=O)C(C)(C)C)ccc4Cl)cccc32)ccn1 [Example 73, 2-Chloro-5-{[(2,2-dimethylpropanoyl)amino]methyl}-N-[1-(2-methoxypyridin-4-yl)-1H-indazol-4-yl]benzamide hydrochloride] | 1.2 nM | 8.48
COCc1ccc(-n2ncc3c(NC(=O)c4cc(CNC(=O)C(C)(C)C)ccc4Cl)cccc32)cn1 [Example 74, 2-Chloro-5-{[(2,2-dimethylpropanoyl)amino]methyl}-N-{1-[6-(methoxymethyl)pyridin-3-yl]-1H-indazol-4-yl}benzamide hydrochloride] | 1.3 nM | 7.81
CC(C)(C)C(=O)NCc1ccc(Cl)c(C(=O)Nc2cccc3c2cnn3-c2ccc(CO)nc2)c1 [Example 75, 2-Chloro-5-{[(2,2-dimethylpropanoyl)amino]methyl}-N-{1-[6-(hydroxymethyl)pyridin-3-yl]-1H-indazol-4-yl}benzamide] | 71.1 nM | 6.59
Cc1cc(-n2ncc3c(NC(=O)c4cc(CNC(=O)C(C)(C)C)ccc4Cl)cccc32)cc(C)n1 [Example 76, 2-Chloro-5-{[(2,2-dimethylpropanoyl)amino]methyl}-N-[1-(2,6-dimethylpyridin-4-yl)-1H-indazol-4-yl]benzamide hydrochloride] | 2.4 nM | 8.28
CC(C)(C)C(=O)NCc1ccc(Cl)c(C(=O)Nc2cccc3c2cnn3-c2ccc(C(F)(F)F)nc2)c1 [Example 77, 2-Chloro-5-{[(2,2-dimethylpropanoyl)amino]methyl}-N-{1-[6-(trifluoromethyl)pyridin-3-yl]-1H-indazol-4-yl}benzamide] | 1.1 nM | 9.00
COCc1cncc(-n2ncc3c(NC(=O)c4cc(CNC(=O)C(C)(C)C)ccc4Cl)cccc32)c1 [Example 78, 2-Chloro-5-{[(2,2-dimethylpropanoyl)amino]methyl}-N-{1-[5-(methoxymethyl)pyridin-3-yl]-1H-indazol-4-yl}benzamide hydrochloride] | 10.4 nM | 8.01
Cc1cc(OC(F)(F)F)ccc1-n1ncc2c(NC(=O)c3cc(CNC(=O)C(C)(C)C)ccc3Cl)cccc21 [Example 79, 2-Chloro-5-{[(2,2-dimethylpropanoyl)amino]methyl}-N-{1-[2-methyl-4-(trifluoromethoxy)phenyl]-1H-indazol-4-yl}benzamide] | 1 nM | 8.47
CC(C)(C)C(=O)NCc1ccc(Cl)c(C(=O)Nc2cccc3c2cnn3-c2nccs2)c1 [Example 80, 2-Chloro-5-{[(2,2-dimethylpropanoyl)amino]methyl}-N-[1-(1,3-thiazol-2-yl)-1H-indazol-4-yl]benzamide] | 1.1 nM | 8.28
CC(C)(C)C(=O)NCc1ccc(Cl)c(C(=O)Nc2cccc3c2cnn3-c2cccc(OC(F)F)c2)c1 [Example 81, 2-Chloro-N-{1-[3-(difluoromethoxy)phenyl]-1H-indazol-4-yl}-5-{[(2,2-dimethylpropanoyl)amino]methyl}benzamide] | 14.9 nM | 9.52
Cc1cc(-n2ncc3c(NC(=O)c4cc(CNC(=O)C(C)(C)C)ccc4Cl)cccc32)ccc1OC(F)(F)F [Example 82, 2-Chloro-5-{[(2,2-dimethylpropanoyl)amino]methyl}-N-{1-[3-methyl-4-(trifluoromethoxy)phenyl]-1H-indazol-4-yl}benzamide] | 10 nM | 9.52
CC(C)(C)C(=O)NCc1ccc(Cl)c(C(=O)Nc2cccc3c2cnn3-c2cscn2)c1 [Example 83, 2-Chloro-5-{[(2,2-dimethylpropanoyl)amino]methyl}-N-[1-(1,3-thiazol-4-yl)-1H-indazol-4-yl]benzamide] | 1.5 nM | 8.28
COC(C)(C)c1ccc(-n2ncc3c(NC(=O)c4cc(CNC(=O)C(C)(C)C)ccc4Cl)cccc32)cn1 [Example 84, 2-Chloro-5-{[(2,2-dimethylpropanoyl)amino]methyl}-N-{1-[6-(2-methoxypropan-2-yl)pyridin-3-yl]-1H-Indazol-4-yl}benzamide hydrochloride] | 0.8 nM | 8.31
CC(C)(C)C(=O)NCc1ccc(Cl)c(C(=O)Nc2cccc3c2cnn3-c2ccc(C(C)(C)F)nc2)c1 [Example 85, 2-Chloro-5-{[(2,2-dimethylpropanoyl)amino]methyl}-N-{1-[6-(2-fluoropropan-2-yl)pyridin-3-yl]-1H-indazol-4-yl}benzamide] | 8.6 nM | 8.22
CCOCc1ccc(-n2ncc3c(NC(=O)c4cc(CNC(=O)C(C)(C)C)ccc4Cl)cccc32)cn1 [Example 86, 2-Chloro-5-{[(2,2-dimethylpropanoyl)amino]methyl}-N-{1-[6-(ethoxymethyl)pyridin-3-yl]-1H-indazol-4-yl}benzamide hydrochloride] | 15.7 nM | 7.00
Cc1ccc(-n2ncc3c(NC(=O)c4cc(CNC(=O)C(F)(F)F)ccc4Cl)cccc32)cn1 [Example 87, 2-Chloro-N-[1-(6-methylpyridin-3-yl)-1H-indazol-4-yl]-5-{[(trifluoroacetyl)amino]methyl}benzamide hydrochloride] | 4.7 nM | 7.14
COc1cccc(Cn2ncc3c(NC(=O)c4cc(CNC(=O)C(C)(C)C)ccc4Cl)cccc32)c1 [Example 89, 2-Chloro-5-{[(2,2-dimethylpropanoyl)amino]methyl}-N-[1-(3-methoxybenzyl)-1H-indazol-4-yl]benzamide] | 3.5 nM | 7.68
COc1ccccc1Cn1ncc2c(NC(=O)c3cc(CNC(=O)C(C)(C)C)ccc3Cl)cccc21 [Example 90, 2-Chloro-5-{[(2,2-dimethylpropanoyl)amino]methyl}-N-[1-(2-methoxybenzyl)-1H-indazol-4-yl]benzamide] | 2.2 nM | 7.75
Cc1cc(C)c(Cn2ncc3c(NC(=O)c4cc(CNC(=O)C(C)(C)C)ccc4Cl)cccc32)c(C)c1 [Example 91, 2-Chloro-5-{[(2,2-dimethylpropanoyl)amino]methyl}-N-[1-(2,4,6-trimethylbenzyl)-1H-indazol-4-yl]benzamide] | < 1 nM | 8.29
CC(C)(C)C(=O)NCc1ccc(Cl)c(C(=O)Nc2cccc3c2cnn3Cc2ccc(C(F)(F)F)cc2)c1 [Example 92] | 5.4 nM | 8.38
CC(C)(C)C(=O)NCc1ccc(Cl)c(C(=O)Nc2cccc3c2cnn3Cc2cccc(C(F)(F)F)c2)c1 [Example 94, 2-Chloro-5-{[(2,2-dimethylpropanoyl)amino]methyl}-N-{1-[3-(trifluoromethyl)benzyl]-1H-indazol-4-yl}benzamide] | 10 nM | 8.04
CC(C)(C)C(=O)NCc1ccc(Cl)c(C(=O)Nc2cccc3c2cnn3CCc2ccccc2)c1 [Example 95, 2-Chloro-5-{[(2,2-dimethylpropanoyl)amino]methyl}-N-[1-(2-phenylethyl)-1H-indazol-4-yl]benzamide] | 1.2 nM | 8.57
CC(C)(C)C(=O)NCc1ccc(Cl)c(C(=O)Nc2cccc3c2cnn3C2CCCC2)c1 [Example 97, 2-Chloro-N-(1-cyclopentyl-1H-indazol-4-yl)-5-{[(2,2-dimethylpropanoyl)amino]methyl}benzamide] | 0.7 nM | 8.28
CC(C)(C)C(=O)NCc1ccc(Cl)c(C(=O)Nc2cccc3c2cnn3C2CCCCC2)c1 [Example 98, 2-Chloro-N-(1-cyclohexyl-1H-indazol-4-yl)-5-{[(2,2-dimethylpropanoyl)amino]methyl}benzamide] | 9 nM | 8.80
